# No end group written: not given here.
# Legend:
# [1] = test system: Crlj:W1 male rats at four weeks old; test: Bone formation in growth cartilage and primary cancellous bone, 7-day oral administration; assay type: in vivo, rat; conditions: seven days
# Method: One of the synthetic peptides (No. 1) or water for injection (control) was administered to Crlj:W1 male rats at four weeks old by oral gavage using a gastric tube once a day for seven days (n=3 in each group). The dose of the synthetic peptide (No. 1) was 100 mg/kg-day. As a positive control, human growth hormone (hGH) (Norditropin, Standard Commodity Classification No. of Japan: 872412) was subcutaneously administered at 500 μg/kg-day once a day for seven days. As fluorescent labels for the site of bone formation, tetracycline (20 mg/kg) was subcutaneously administered on day 4 after the administration of the peptide or control, and then calcein (10 mg/kg) was subcutaneously administered on day 6 after the administration of the peptide or control. After the administration of the test sample on day 7, the rats were kept under fasting conditions. Twenty-four hours later, the blood was collected. The rats were then euthanized by bloodletting under anesthesia, and the tibiae were harvested (see FIG. 16). Non-decalcified specimens of the proximal tibiae were prepared and photographed under a fluorescent microscope (BX-53, OLYMPUS). The bone morphology was measured using a morphometry system (Histometry RT digitizer, System Supply Co., Ltd.) and an analysis software (CSS-840 cancellous bone morphometry version, System Supply Co., Ltd.). The longitudinal growth rate (Lo.G.R.) in the growth cartilage, which is the increase in the height per day, was determined by measuring the distance between the tetracycline label and the calcein label, and dividing the distance by the administration interval between the fluorescent labels (two days).
# The increase in the level of IGF-1, which is related to growth of the bones and muscles in a growth phase, may contribute to the bone growth-promoting effect.
# [2] = test system: mouse-derived chondrogenic cell line ATDC5; test: Chondrocyte growth-promoting activity (Cell Counting Kit-8); assay type: cell-based; conditions: 10 nmol/mL; 72 hours; relative to control taken as 100%; FIG. 14
# Method: This study was performed using mouse-derived chondrogenic cell line ATDC5 (RIKEN BANK, RBC0565). ATDC5 cells in the logarithmic growth phase were suspended at 3×10^4 cells/mL in Eagle MEM medium supplemented with 5% FCS (fetal calf serum), and 100 μL of the cell suspension was seeded in each well of a 96-well plate and precultured at 5% CO2 and 95% air at 37° C. On the next day, the medium in each well was removed, and medium containing the synthetic peptide (No. 1 or No. 6) at 10 nmol/mL was added. The cells were cultured for 72 hours. As a control, medium without a synthetic peptide was added. The reaction solution ([…]) of Cell Counting Kit-8 (Dojindo Laboratories) was added to each well. The plate was incubated for 3 hours, and the absorbance at 450 nm was measured with a microplate reader. The activity of the synthetic peptides for promoting the growth of chondrocytes was expressed in terms of the relative value, with the absorbance (growth rate) in the control group taken as 100%.
# [3] = test system: mouse osteoblast-like cell line MC3T3-E1 Subclone-4; test: Osteoblast growth-promoting activity (cell counting method); assay type: cell-based; conditions: synthetic peptides at 2.5, 5 or 10 μg/mL; 72 hours; relative to PBS (−) group taken as 100; FIGS. 9 to 12
# Method: A mouse osteoblast-like cell line MC3T3-E1 Subclone-4 (ATCC No. CRL-2593) was cultured in α-MEM medium supplemented with 10% FBS at 5% CO2 and 95% air at 37° C. until confluent. The cells were collected by trypsinization. The collected cells were suspended at 1×10^4 cells/mL in fresh α-MEM medium. One mL of the cell suspension was seeded in each well of a 24-well plate, and precultured at 5% CO2 and 95% air at 37° C. On the next day, the medium was replaced with medium prepared by well mixing 50 μL of a sample or PBS (−) with 950 μL of fresh α-MEM medium supplemented with CaCl2 to a Ca concentration of 500 μg/mL. The cells were further cultured for 72 hours. The growth activity of osteoblasts was measured by the cell counting method. The activity of the sample for promoting the growth of osteoblasts was expressed in terms of the relative value, with the growth rate in the PBS (−) group taken as 100. Osteoblast growth-promoting activity was determined for the synthetic peptides in the same manner as in Example 1. The synthetic peptides were added at 2.5, 5 or 10 μg/mL per well. As a control, PBS (−) was added. The osteoblast growth-promoting activity was expressed in terms of the relative value, with the growth rate in the PBS (−) group taken as 100.
# [4] = test system: mature female rats (eight months old); test: Bone formation-promoting effect in mature rats; assay type: in vivo, rat; conditions: 20 weeks
# Method: Synthetic peptide No. 1 was administered to mature female rats (eight months old, ten rats in each group) by oral gavage using a gastric tube once a day for 20 weeks. The dose of the synthetic peptide was 1, 10 or 100 mg/kg·day.
# [5] = test system: Crlj:W1 male rats at four weeks old; test: Bone formation in growth cartilage and secondary cancellous bone, 21-day oral administration; assay type: in vivo, rat; conditions: 21 days
# Method: One of the synthetic peptides (No. 1) or water for injection (control) was administered to Crlj:W1 male rats at four weeks old by oral gavage using a gastric tube once a day for 21 days (n=3 in each group). The dose of the synthetic peptide was 100 mg/kg·day. As a positive control, human growth hormone (hGH) (Norditropin, Standard Commodity Classification No. of Japan: 872412) was subcutaneously administered at 500 μg/kg·day once a day for 21 days. As fluorescent labels for the site of bone formation, tetracycline (20 mg/kg) was subcutaneously administered on day 18 after the administration of the peptide or control, and then calcein (10 mg/kg) was subcutaneously administered on day 20 after the administration of the peptide or control. After the administration of the test sample on day 21, the rats were kept under fasting conditions. Twenty-four hours later, the rats were euthanized by bloodletting under anesthesia, and the tibiae were harvested (see FIG. 20). Non-decalcified specimens of the proximal tibiae were prepared and photographed under a fluorescent microscope (BX-53, OLYMPUS). The bone morphology was measured using a morphometry system (Histometry RT digitizer, System Supply Co., Ltd.) and an analysis software (CSS-840 cancellous bone morphometry version, System Supply Co., Ltd.). The longitudinal growth rate (Lo.G.R.) in the epiphyseal cartilage, which is the increase in the height per day, was determined by measuring the distance between the tetracycline label and the calcein label, and dividing the distance by the administration interval between the fluorescent labels (two days).
# [6] = No. 1 oral 1, 10 or 100 mg/kg·day, alendronate 300 μg/kg subcutaneous, vs control group
sequence,measurement,setting,value
VNPESEEE [No. 1],serum level of insulin-like growth factor (IGF-1),"[1]; No. 1 oral 100 mg/kg-day, hGH 500 μg/kg-day subcutaneous, ELISA, FIG. 19",higher than that in the control group
same,"longitudinal growth rate (Lo.G.R.) in the growth cartilage, vs control group","[1]; No. 1 oral 100 mg/kg-day, hGH 500 μg/kg-day subcutaneous, FIG. 17",significant promotion of bone growth as compared with the control group
same,"longitudinal growth rate (Lo.G.R.) in the growth cartilage, vs hGH administration group","[1]; oral 100 mg/kg-day, FIG. 17",significant as compared with the hGH administration group
same,incorporation of the fluorescent labels into the primary cancellous bone,"[1]; oral 100 mg/kg-day, vs control group and hGH group, FIG. 18",high frequency of incorporation of the fluorescent labels into the primary cancellous bone
same,chondrocyte growth-promoting activity,[2],showed chondrocyte growth-promoting effect
same,osteoblast growth-promoting activity,[3],promoted the growth of osteoblasts in a concentration-dependent manner
same,"levels of the increases (femur bone density, cancellous bone volume) compared with alendronate",[4],comparable to those in the alendronate administration group
same,bone density in the femurs,[4]; [6],significantly increased
same,cancellous bone volume in the proximal tibial metaphysis,[4]; [6],significantly increased
same,"longitudinal growth rate (Lo.G.R.) in the epiphyseal cartilage, vs control group","[5]; No. 1 oral 100 mg/kg·day, hGH 500 μg/kg·day subcutaneous, FIG. 21",significant promotion of bone growth as compared with the control group
same,"longitudinal growth rate (Lo.G.R.) in the epiphyseal cartilage, vs hGH administration group","[5]; oral 100 mg/kg·day, FIG. 21",significant as compared with the hGH administration group
same,secondary cancellous bone volume (bone volume/tissue volume (BV/TV)),"[5]; oral 100 mg/kg·day, FIG. 22",higher secondary cancellous bone volume than the control group and the hGH administration group
same,osteoblast surface/bone surface (Ob.S/BS),"[5]; oral 100 mg/kg·day, FIG. 23",high percentage
same,osteoclast surface/Bone surface (Oc.S/BS),"[5]; oral 100 mg/kg·day, FIG. 24",low percentage
